According to patent US20230391748A1, “BICYCLIC INHIBITORS OF IRAK” (priority 2022, published 2023):

What was measured:
IRAK4 = IRAK4 (Homo sapiens (Human), UniProt Q9NWZ3); assay: IRAK4 ADP-Glo Assay; format: biochemical; settings: MBP substrate
Outline: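 Human IRAK4 kinase reaction with MBP substrate plus ATP in Tris-HCl/MgCl2/BSA/DTT buffer, pH 7.4, run 60 min at room temperature or 30 min at 30 °C. ADP formed was measured by ADP-Glo luminescence after ATP depletion (40 min) and detection reagent (30 min).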

IL23p19 in THP-1 Cells = assay: LPS Induced IL23p19 in THP-1 Cells (with IFNγ Primed) Assay; format: cell-based; settings: Homo sapiens, THP-1, 18 h, read-out: IL23 (THP, LPS) (IC50, μM)
Outline: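 THP-1 cells (50K/well) primed with IFNγ (50 ng/mL) about 18 h, then given compound and stimulated with LPS for 18 h at 37 °C. Secreted IL-23p19 measured by sandwich ELISA with chemiluminescent read-out, giving EC50. Cell Titer Glo used on the remaining cells for toxicity.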

TNF-α in human PBMCs = assay: R848-induced TNF-α in human PBMCs Assay; format: cell-based; settings: Homo sapiens, PBMC, 4 h, read-out: TNFα (PBMC, R848) (IC50, μM)
Outline: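 Human PBMCs at 200K/well were pretreated with compound, then R848-stimulated for 4 h at 37 °C, 5% CO2. Supernatant TNF-α quantified by chemiluminescent ELISA; EC50 from curve fitting.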

[1] = test system: TNF-α in Human Primary Monocyte-Derived Dendritic Cells; assay: Gardiquimod-Induced TNF-α in Human Primary Monocyte-Derived Dendritic Cells; format: cell-based; settings: Dendritic cell, IFNγ-primed monocyte-derived dendritic cells, 4 μg/ml Gardiquimod, 6 hours, TNF-α ELISA, read-out: TNFα (DC, GARD) (IC50)
Outline: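 Monocytes differentiated 7 days with GM-CSF and IL-4, then primed 24 h with 50 ng/ml IFN-γ. Compound added 1 h before 6 h stimulation with 4 μg/ml Gardiquimod, 0.5% DMSO final. Supernatant TNF-α measured by chemiluminescent ELISA; EC50 from curve fitting.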

Sequence of IRAK4 (Q9NWZ3 whole entry): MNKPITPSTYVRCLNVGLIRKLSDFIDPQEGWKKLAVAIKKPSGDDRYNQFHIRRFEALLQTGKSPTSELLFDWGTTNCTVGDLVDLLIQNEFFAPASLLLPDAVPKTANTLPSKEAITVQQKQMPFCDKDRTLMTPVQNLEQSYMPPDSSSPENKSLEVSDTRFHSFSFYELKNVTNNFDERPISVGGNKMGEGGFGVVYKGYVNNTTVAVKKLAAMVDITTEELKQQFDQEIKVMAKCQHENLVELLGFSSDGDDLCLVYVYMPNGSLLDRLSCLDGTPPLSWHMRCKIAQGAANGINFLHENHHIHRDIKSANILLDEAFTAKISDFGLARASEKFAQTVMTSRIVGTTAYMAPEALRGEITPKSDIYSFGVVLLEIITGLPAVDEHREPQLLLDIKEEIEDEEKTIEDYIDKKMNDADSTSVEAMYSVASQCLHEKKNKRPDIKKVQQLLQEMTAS

Row | Structure (SMILES) | IC50 (IRAK4) [nM] | IC50 (IL23p19 in THP-1 Cells) [µM] | IC50 (TNF-α in human PBMCs) [µM] | IC50 [1] [nM]
1 | COC1(OC)CC(C#Cc2cnc(O[C@@H]3CCCN(C(=O)CC#N)C3)c3cc(OC(C)C)c(C(N)=O)cc23)C1 [Compound I-105, (R)-1-((1-(2-cyanoacetyl)piperidin-3-yl)oxy)-4-((3,3-dimethoxycyclobutyl)ethynyl)-7-isopropoxyisoquinoline-6-carboxamide] | 10 | 0.603 | 0.275 | 286
2 | CC(C)Oc1cc2c(O[C@@H]3CCCN(C(=O)CC#N)C3)ncc(C#CC3CCN(C(=O)OC(C)(C)C)CC3)c2cc1C(N)=O [Compound I-95, tert-butyl (R)-4-((6-carbamoyl-1-((1-(2-cyanoacetyl)piperidin-3-yl)oxy)-7-isopropoxyisoquinolin-4-yl)ethynyl)piperidine-1-carboxylate] | 68.5 | 1.56 | 2.1 | 842
3 | CC(C)Oc1cc2c(O[C@@H]3CCCNC3)ncc(-c3cnn(C4CC4)c3)c2cc1C(N)=O [Compound I-108, (R)-4-(1-cyclopropyl-1H-pyrazol-4-yl)-7-isopropoxy-1-(piperidin-3-yloxy)isoquinoline-6-carboxamide] | 142 | 10 | 5.5 | 1370
4 | CC(C)Oc1cc2c(OC[C@@H]3CCC(=O)N3)ncc(C#CC3(O)CCN(C(=O)OC(C)(C)C)CC3)c2cc1C(N)=O [Compound I-12, tert-butyl (S)-4-((6-carbamoyl-7-isopropoxy-1-((5-oxopyrrolidin-2-yl)methoxy)isoquinolin-4-yl)ethynyl)-4-hydroxypiperidine-1-carboxylate] | 41.2 | 1.25 | 0.448 | 6090
5 | CC(C)Oc1cc2c(OC[C@@H]3CCC(=O)N3)ncc(C#CC3CN(C)C3)c2cc1C(N)=O [Compound I-26, (S)-7-isopropoxy-4-((1-methylazetidin-3-yl)ethynyl)-1-((5-oxopyrrolidin-2-yl)methoxy)isoquinoline-6-carboxamide] | 2.6 | 0.726 | 0.363 | 161
6 | CC(C)Oc1cc2c(OC[C@@H]3CC(F)(F)C(=O)N3)ncc(-c3cnn(C4CCCC4)c3)c2cc1C(N)=O [Compound I-69, (S)-4-(1-cyclopentyl-1H-pyrazol-4-yl)-1-((4,4-difluoro-5-oxopyrrolidin-2-yl)methoxy)-7-isopropoxyisoquinoline-6-carboxamide] | 5.1 | 0.391 | 0.241 | 52.3
7 | CC(C)Oc1cc2c(O[C@@H]3CCCN(C(=O)CC#N)C3)ncc(-c3cnn(C4CCN(C)CC4)c3)c2cc1C(N)=O [Compound I-123, (R)-1-((1-(2-cyanoacetyl)piperidin-3-yl)oxy)-7-isopropoxy-4-(1-(1-methylpiperidin-4-yl)-1H-pyrazol-4-yl)isoquinoline-6-carboxamide] | 19.2 | 4.9 | 0.145 | 217
8 | CC(C)Oc1cc2c(O[C@@H]3CCCNC3)ncc(-c3cnn(C4CCCC4)c3)c2cc1C(N)=O [Compound I-110, (R)-4-(1-cyclopentyl-1H-pyrazol-4-yl)-7-isopropoxy-1-(piperidin-3-yloxy)isoquinoline-6-carboxamide] | 123 | 24.7 | 2.44 | 1790
9 | CCO[C@H]1CC[C@@H](C#Cc2cnc(O[C@@H]3CCCN(C(=O)CC#N)C3)c3cc(OC(C)C)c(C(N)=O)cc23)CC1 [Compound I-99, 1-(((R)-1-(2-cyanoacetyl)piperidin-3-yl)oxy)-4-((cis-4-ethoxycyclohexyl)ethynyl)-7-isopropoxyisoquinoline-6-carboxamide] | 23.1 | 0.483 | 0.555 | 366
10 | CC(C)Oc1cc2c(O[C@@H]3CCCN(C(=O)CC#N)C3)ncc(-c3cnn(C4CCN(C(=O)OC(C)(C)C)CC4)c3)c2cc1C(N)=O [Compound I-121, tert-butyl (R)-4-(4-(6-carbamoyl-1-((1-(2-cyanoacetyl)piperidin-3-yl)oxy)-7-isopropoxyisoquinolin-4-yl)-1H-pyrazol-1-yl)piperidine-1-carboxylate] | 12.9 | 1.9 | 1.76 | 1020
11 | CC(C)Oc1cc2c(O[C@@H]3CCCNC3)ncc(-c3cnn(CCC4CCOCC4)c3)c2cc1C(N)=O [Compound I-113, (R)-7-isopropoxy-1-(piperidin-3-yloxy)-4-(1-(2-(tetrahydro-2H-pyran-4-yl)ethyl)-1H-pyrazol-4-yl)isoquinoline-6-carboxamide] | 364 | 8.82 | 0.677 | 853
12 | CC(C)Oc1cc2c(O[C@@H]3CCCN(C(=O)CC#N)C3)ncc(-c3cnn([C@H]4C[C@@H](N(C)C)C4)c3)c2cc1C(N)=O [Compound I-120, 1-(((R)-1-(2-cyanoacetyl)piperidin-3-yl)oxy)-4-(1-(cis-3-(dimethylamino)cyclobutyl)-1H-pyrazol-4-yl)-7-isopropoxyisoquinoline-6-carboxamide] | 8.4 | 2.83 | 0.227 | 423
13 | CCO[C@H]1CC[C@H](n2cc(-c3cnc(O[C@@H]4CCCN(C(=O)CC#N)C4)c4cc(OC(C)C)c(C(N)=O)cc34)cn2)CC1 [Compound I-124, 1-(((R)-1-(2-cyanoacetyl)piperidin-3-yl)oxy)-4-(1-(trans-4-ethoxycyclohexyl)-1H-pyrazol-4-yl)-7-isopropoxyisoquinoline-6-carboxamide] | 6.8 | 0.609 | 12.2 | 352
14 | CC(C)Oc1cc2c(O[C@@H]3CCCNC3)ncc(-c3cnn(CC4CCOCC4)c3)c2cc1C(N)=O [Compound I-112, (R)-7-isopropoxy-1-(piperidin-3-yloxy)-4-(1-((tetrahydro-2H-pyran-4-yl)methyl)-1H-pyrazol-4-yl)isoquinoline-6-carboxamide] | 280 | 13.6 | 3.95 | 9220
15 | CC(C)Oc1cc2c(OC[C@@H]3CCC(=O)N3)ncc(-c3cnn([C@H]4CC[C@](C)(O)CC4)c3)c2cc1C(N)=O [Compound I-40, 4-(1-((1r,4S)-4-hydroxy-4-methylcyclohexyl)-1H-pyrazol-4-yl)-7-isopropoxy-1-(((S)-5-oxopyrrolidin-2-yl)methoxy)isoquinoline-6-carboxamide] | 17.1 | 0.817 | 0.188 | 2420
